Data taken from publication PMC6874179, “Development of Macrocycle Kinase Inhibitors for ALK2 Using Fibrodysplasia Ossificans Progressiva‐Derived Endothelial Cells” (JBMR Plus, 2019).

Assays:
Format in all cases: biochemical
RET_S891A = target: T1, RET_S891A (Homo sapiens, UniProt P07949, S891A); experiment: Proqinase Kinase profiling; conditions: read-out: % inhibition at 100nM
T1 construct: purchased DiscoverX

CDK8_cyclinC = target: T2, CDK8_cyclinC (Homo sapiens, UniProt P49336); experiment: Proqinase Kinase profiling; conditions: read-out: % inhibition at 100nM
T2 construct: purchased DiscoverX

NTRK3 = target: T3, NTRK3 (Homo sapiens, UniProt Q16288); experiment: Proqinase Kinase profiling; conditions: read-out: % inhibition at 100nM
T3 construct: purchased DiscoverX

GSG2 = target: T4, GSG2 (Homo sapiens, UniProt Q8TF76); experiment: Proqinase Kinase profiling; conditions: read-out: % inhibition at 100nM
T4 construct: purchased DiscoverX

TLK1 = target: T5, TLK1 (Homo sapiens, UniProt Q9UKI8); experiment: Proqinase Kinase profiling; conditions: read-out: % inhibition at 100nM
T5 construct: purchased DiscoverX

CAMK2B = target: T6, CAMK2B (Homo sapiens, UniProt Q13554); experiment: Proqinase Kinase profiling; conditions: read-out: % inhibition at 100nM
T6 construct: purchased DiscoverX

PRKCG = target: T7, PRKCG (Homo sapiens, UniProt P05129); experiment: Proqinase Kinase profiling; conditions: read-out: % inhibition at 100nM
T7 construct: purchased DiscoverX

DAPK3 = target: T8, DAPK3 (Homo sapiens, UniProt O43293); experiment: Proqinase Kinase profiling; conditions: read-out: % inhibition at 100nM
T8 construct: purchased DiscoverX

LRRK2 = target: T9, LRRK2 (Homo sapiens, UniProt Q5S007); experiment: Proqinase Kinase profiling; conditions: read-out: % inhibition at 100nM
T9 construct: purchased DiscoverX

PIM3 = target: T10, PIM3 (Homo sapiens, UniProt Q86V86); experiment: Proqinase Kinase profiling; conditions: read-out: % inhibition at 100nM
T10 construct: purchased DiscoverX

PRKCA = target: T11, PRKCA (Homo sapiens, UniProt P17252); experiment: Proqinase Kinase profiling; conditions: read-out: % inhibition at 100nM
T11 construct: purchased DiscoverX

CLK1 = target: T12, CLK1 (Homo sapiens, UniProt P49759); experiment: Proqinase Kinase profiling; conditions: read-out: % inhibition at 100nM
T12 construct: purchased DiscoverX

MAP2K6 = target: T13, MAP2K6 (Homo sapiens, UniProt P52564); experiment: Proqinase Kinase profiling; conditions: read-out: % inhibition at 100nM
T13 construct: purchased DiscoverX

MAP4K4 = target: T14, MAP4K4 (Homo sapiens, UniProt O95819); experiment: Proqinase Kinase profiling; conditions: read-out: % inhibition at 100nM
T14 construct: purchased DiscoverX

PAK7 = target: T15, PAK7 (Homo sapiens, UniProt Q9P286); experiment: Proqinase Kinase profiling; conditions: read-out: % inhibition at 100nM
T15 construct: purchased DiscoverX

MAP3K9 = target: T16, MAP3K9 (Homo sapiens, UniProt P80192); experiment: Proqinase Kinase profiling; conditions: read-out: % inhibition at 100nM
T16 construct: purchased DiscoverX

PRKD2 = target: T17, PRKD2 (Homo sapiens, UniProt Q9BZL6); experiment: Proqinase Kinase profiling; conditions: read-out: % inhibition at 100nM
T17 construct: purchased DiscoverX

LIMK2 = target: T18, LIMK2 (Homo sapiens, UniProt P53671); experiment: Proqinase Kinase profiling; conditions: read-out: % inhibition at 100nM
T18 construct: purchased DiscoverX

EIF2AK1 = target: T19, EIF2AK1 (Homo sapiens, UniProt Q9BQI3); experiment: Proqinase Kinase profiling; conditions: read-out: % inhibition at 100nM
T19 construct: purchased DiscoverX

SIK2 = target: T20, SIK2 (Homo sapiens, UniProt Q9H0K1); experiment: Proqinase Kinase profiling; conditions: read-out: % inhibition at 100nM
T20 construct: purchased DiscoverX

RAF1 = target: T21, RAF1 (Homo sapiens, UniProt P04049); experiment: Proqinase Kinase profiling; conditions: read-out: % inhibition at 100nM
T21 construct: purchased DiscoverX

MAPK15 = target: T22, MAPK15 (Homo sapiens, UniProt Q8TD08); experiment: Proqinase Kinase profiling; conditions: read-out: % inhibition at 100nM
T22 construct: purchased DiscoverX

CDK4_cyclinD3 = target: T23, CDK4_cyclinD3 (Homo sapiens, UniProt P11802); experiment: Proqinase Kinase profiling; conditions: read-out: % inhibition at 100nM
T23 construct: purchased DiscoverX

GRK6 = target: T24, GRK6 (Homo sapiens, UniProt P43250); experiment: Proqinase Kinase profiling; conditions: read-out: % inhibition at 100nM
T24 construct: purchased DiscoverX

TSSK1B = target: T25, TSSK1B (Homo sapiens, UniProt Q9BXA7); experiment: Proqinase Kinase profiling; conditions: read-out: % inhibition at 100nM
T25 construct: purchased DiscoverX

EPHA8 = target: T26, EPHA8 (Homo sapiens, UniProt P29322); experiment: Proqinase Kinase profiling; conditions: read-out: % inhibition at 100nM
T26 construct: purchased DiscoverX

PRKG1 = target: T27, PRKG1 (Homo sapiens, UniProt Q13976); experiment: Proqinase Kinase profiling; conditions: read-out: % inhibition at 100nM
T27 construct: purchased DiscoverX

SRC = target: T28, SRC (Homo sapiens, UniProt P12931); experiment: Proqinase Kinase profiling; conditions: read-out: % inhibition at 100nM
T28 construct: purchased DiscoverX

RET_V804L = target: T29, RET_V804L (Homo sapiens, UniProt P07949, V804L); experiment: Proqinase Kinase profiling; conditions: read-out: % inhibition at 100nM
T29 construct: purchased DiscoverX

GSK3B = target: T30, GSK3B (Homo sapiens, UniProt P49841); experiment: Proqinase Kinase profiling; conditions: read-out: % inhibition at 100nM
T30 construct: purchased DiscoverX

MARK1 = target: T31, MARK1 (Homo sapiens, UniProt Q9P0L2); experiment: Proqinase Kinase profiling; conditions: read-out: % inhibition at 100nM
T31 construct: purchased DiscoverX

FGFR3_G697C = target: T32, FGFR3_G697C (Homo sapiens, UniProt P22607, G697C); experiment: Proqinase Kinase profiling; conditions: read-out: % inhibition at 100nM
T32 construct: purchased DiscoverX

HIPK3 = target: T33, HIPK3 (Homo sapiens, UniProt Q9H422); experiment: Proqinase Kinase profiling; conditions: read-out: % inhibition at 100nM
T33 construct: purchased DiscoverX

ERBB4 = target: T34, ERBB4 (Homo sapiens, UniProt Q15303); experiment: Proqinase Kinase profiling; conditions: read-out: % inhibition at 100nM
T34 construct: purchased DiscoverX

AURKC = target: T35, AURKC (Homo sapiens, UniProt Q9UQB9); experiment: Proqinase Kinase profiling; conditions: read-out: % inhibition at 100nM
T35 construct: purchased DiscoverX

EGFR_E746-A750del = target: T36, EGFR_E746-A750del (Homo sapiens, UniProt P00533, DEL746-750); experiment: Proqinase Kinase profiling; conditions: read-out: % inhibition at 100nM
T36 construct: purchased DiscoverX

FER = target: T37, FER (Homo sapiens, UniProt P16591); experiment: Proqinase Kinase profiling; conditions: read-out: % inhibition at 100nM
T37 construct: purchased DiscoverX

STK33 = target: T38, STK33 (Homo sapiens, UniProt Q9BYT3); experiment: Proqinase Kinase profiling; conditions: read-out: % inhibition at 100nM
T38 construct: purchased DiscoverX

VRK1 = target: T39, VRK1 (Homo sapiens, UniProt Q99986); experiment: Proqinase Kinase profiling; conditions: read-out: % inhibition at 100nM
T39 construct: purchased DiscoverX

MET_Y1235D = target: T40, MET_Y1235D (Homo sapiens, UniProt P08581, Y1235D); experiment: Proqinase Kinase profiling; conditions: read-out: % inhibition at 100nM
T40 construct: purchased DiscoverX

EPHA7 = target: T41, EPHA7 (Homo sapiens, UniProt Q15375); experiment: Proqinase Kinase profiling; conditions: read-out: % inhibition at 100nM
T41 construct: purchased DiscoverX

FGFR4 = target: T42, FGFR4 (Homo sapiens, UniProt P22455); experiment: Proqinase Kinase profiling; conditions: read-out: % inhibition at 100nM
T42 construct: purchased DiscoverX

panel of 366–468 kinases = experiment: Kinase panel selectivity; conditions: compound at 100nM
From the text: Figure 4 ALK2 binding and kinase profile of OD36 and OD52.

T5 sequence (Q9UKI8 whole entry): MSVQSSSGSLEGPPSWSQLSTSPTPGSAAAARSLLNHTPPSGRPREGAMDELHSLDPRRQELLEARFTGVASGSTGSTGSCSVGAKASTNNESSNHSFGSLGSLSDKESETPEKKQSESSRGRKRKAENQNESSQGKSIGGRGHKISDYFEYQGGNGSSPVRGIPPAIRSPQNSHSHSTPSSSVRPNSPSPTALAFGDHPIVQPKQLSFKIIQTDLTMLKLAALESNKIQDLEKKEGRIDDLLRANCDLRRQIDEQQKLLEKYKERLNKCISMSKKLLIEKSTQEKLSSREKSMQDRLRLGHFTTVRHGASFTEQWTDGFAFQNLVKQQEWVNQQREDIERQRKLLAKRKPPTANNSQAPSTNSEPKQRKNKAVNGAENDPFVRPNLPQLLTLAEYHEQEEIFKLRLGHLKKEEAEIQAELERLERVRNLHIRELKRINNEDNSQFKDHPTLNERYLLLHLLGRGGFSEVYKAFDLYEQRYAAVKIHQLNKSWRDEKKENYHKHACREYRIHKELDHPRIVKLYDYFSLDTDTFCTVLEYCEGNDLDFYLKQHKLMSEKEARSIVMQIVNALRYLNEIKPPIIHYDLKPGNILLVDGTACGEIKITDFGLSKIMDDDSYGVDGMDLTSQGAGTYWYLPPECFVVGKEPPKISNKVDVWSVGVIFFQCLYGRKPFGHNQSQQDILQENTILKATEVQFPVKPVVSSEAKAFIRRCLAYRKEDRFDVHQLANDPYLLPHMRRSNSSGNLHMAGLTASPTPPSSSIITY
T42 sequence (P22455 22-802): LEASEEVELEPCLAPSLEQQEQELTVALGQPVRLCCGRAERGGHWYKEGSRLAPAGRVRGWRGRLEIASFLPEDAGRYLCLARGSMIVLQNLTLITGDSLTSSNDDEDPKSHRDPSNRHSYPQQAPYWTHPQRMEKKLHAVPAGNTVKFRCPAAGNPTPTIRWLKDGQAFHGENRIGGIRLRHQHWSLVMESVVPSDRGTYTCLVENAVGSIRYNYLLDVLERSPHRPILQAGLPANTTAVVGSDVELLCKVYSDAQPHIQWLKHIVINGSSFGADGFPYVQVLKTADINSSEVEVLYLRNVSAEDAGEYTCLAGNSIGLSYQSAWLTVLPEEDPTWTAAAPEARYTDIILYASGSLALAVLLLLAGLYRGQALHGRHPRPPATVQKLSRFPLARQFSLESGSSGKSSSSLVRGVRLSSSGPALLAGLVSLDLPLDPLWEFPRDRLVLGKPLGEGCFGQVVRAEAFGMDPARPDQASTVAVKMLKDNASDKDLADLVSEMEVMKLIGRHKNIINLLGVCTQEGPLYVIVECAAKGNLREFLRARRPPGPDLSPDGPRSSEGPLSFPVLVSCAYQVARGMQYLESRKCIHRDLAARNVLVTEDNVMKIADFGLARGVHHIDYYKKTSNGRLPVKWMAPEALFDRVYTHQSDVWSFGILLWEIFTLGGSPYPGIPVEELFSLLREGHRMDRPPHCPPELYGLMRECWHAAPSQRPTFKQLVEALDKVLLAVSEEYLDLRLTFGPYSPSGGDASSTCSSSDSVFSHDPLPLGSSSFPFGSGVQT
T32 sequence (P22607 23-806 G697C): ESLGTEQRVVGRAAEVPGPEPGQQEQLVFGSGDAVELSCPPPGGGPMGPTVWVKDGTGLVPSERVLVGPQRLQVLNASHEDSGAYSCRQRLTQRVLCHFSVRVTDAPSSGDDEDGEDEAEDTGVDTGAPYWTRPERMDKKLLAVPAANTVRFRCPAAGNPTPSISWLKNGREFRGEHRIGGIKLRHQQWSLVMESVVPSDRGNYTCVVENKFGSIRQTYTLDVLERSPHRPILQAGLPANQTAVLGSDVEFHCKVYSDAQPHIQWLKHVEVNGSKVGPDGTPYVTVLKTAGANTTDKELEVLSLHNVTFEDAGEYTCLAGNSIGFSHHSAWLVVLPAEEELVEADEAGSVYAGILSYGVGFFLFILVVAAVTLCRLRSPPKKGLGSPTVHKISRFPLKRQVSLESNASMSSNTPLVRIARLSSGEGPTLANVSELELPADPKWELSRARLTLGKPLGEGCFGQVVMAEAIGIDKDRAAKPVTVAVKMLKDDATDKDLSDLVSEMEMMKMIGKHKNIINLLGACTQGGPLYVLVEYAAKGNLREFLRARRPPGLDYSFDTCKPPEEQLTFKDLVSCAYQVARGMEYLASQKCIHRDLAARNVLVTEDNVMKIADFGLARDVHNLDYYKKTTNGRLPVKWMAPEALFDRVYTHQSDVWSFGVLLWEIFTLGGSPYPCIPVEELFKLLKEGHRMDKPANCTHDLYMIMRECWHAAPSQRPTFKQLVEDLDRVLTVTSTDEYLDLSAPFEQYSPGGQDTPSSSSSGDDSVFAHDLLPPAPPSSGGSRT
T15 sequence (Q9P286 whole entry): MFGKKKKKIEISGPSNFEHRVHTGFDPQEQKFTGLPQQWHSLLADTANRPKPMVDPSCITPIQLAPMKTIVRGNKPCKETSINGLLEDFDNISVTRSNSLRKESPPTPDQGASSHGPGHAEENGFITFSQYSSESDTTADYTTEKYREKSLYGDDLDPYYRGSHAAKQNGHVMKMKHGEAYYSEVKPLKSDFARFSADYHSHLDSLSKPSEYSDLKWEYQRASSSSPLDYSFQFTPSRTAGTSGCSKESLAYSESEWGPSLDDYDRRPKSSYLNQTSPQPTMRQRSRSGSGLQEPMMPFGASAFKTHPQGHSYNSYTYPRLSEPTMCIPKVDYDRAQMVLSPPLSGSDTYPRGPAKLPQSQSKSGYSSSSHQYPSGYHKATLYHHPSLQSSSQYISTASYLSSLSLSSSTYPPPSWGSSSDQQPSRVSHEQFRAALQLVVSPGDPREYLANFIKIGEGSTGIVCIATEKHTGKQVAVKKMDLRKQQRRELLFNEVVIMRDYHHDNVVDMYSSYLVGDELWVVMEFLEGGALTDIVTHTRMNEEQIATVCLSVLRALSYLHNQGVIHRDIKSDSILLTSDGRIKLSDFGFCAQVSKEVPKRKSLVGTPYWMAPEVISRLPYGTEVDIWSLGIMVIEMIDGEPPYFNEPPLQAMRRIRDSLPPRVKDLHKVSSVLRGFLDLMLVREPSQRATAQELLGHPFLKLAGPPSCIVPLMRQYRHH
T20 sequence (Q9H0K1 whole entry): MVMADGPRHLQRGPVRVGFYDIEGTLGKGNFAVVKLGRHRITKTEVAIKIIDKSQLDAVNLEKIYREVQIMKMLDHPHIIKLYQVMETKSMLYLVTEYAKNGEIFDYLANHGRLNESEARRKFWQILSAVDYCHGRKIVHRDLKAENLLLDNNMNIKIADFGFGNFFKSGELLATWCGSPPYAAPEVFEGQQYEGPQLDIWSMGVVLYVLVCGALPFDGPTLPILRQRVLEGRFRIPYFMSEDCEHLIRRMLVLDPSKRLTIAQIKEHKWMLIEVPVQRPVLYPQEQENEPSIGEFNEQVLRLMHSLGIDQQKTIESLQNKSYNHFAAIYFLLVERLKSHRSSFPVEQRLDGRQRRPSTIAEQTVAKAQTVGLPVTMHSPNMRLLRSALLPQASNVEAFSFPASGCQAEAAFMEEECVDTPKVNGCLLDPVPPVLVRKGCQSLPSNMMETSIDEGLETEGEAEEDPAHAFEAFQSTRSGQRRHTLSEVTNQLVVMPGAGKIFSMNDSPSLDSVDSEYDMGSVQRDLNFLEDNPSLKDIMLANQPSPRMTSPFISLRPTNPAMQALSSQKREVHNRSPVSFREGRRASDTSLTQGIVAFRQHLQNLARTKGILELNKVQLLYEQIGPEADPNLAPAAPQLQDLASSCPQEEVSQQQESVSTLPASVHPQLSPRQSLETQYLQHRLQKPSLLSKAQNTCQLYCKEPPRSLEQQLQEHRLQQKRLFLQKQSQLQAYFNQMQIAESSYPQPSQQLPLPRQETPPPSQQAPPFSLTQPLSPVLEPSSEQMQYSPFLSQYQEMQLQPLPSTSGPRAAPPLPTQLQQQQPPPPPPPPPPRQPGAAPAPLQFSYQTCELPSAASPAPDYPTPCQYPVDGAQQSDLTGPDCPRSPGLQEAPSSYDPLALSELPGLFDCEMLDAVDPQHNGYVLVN
T24 sequence (P43250 whole entry): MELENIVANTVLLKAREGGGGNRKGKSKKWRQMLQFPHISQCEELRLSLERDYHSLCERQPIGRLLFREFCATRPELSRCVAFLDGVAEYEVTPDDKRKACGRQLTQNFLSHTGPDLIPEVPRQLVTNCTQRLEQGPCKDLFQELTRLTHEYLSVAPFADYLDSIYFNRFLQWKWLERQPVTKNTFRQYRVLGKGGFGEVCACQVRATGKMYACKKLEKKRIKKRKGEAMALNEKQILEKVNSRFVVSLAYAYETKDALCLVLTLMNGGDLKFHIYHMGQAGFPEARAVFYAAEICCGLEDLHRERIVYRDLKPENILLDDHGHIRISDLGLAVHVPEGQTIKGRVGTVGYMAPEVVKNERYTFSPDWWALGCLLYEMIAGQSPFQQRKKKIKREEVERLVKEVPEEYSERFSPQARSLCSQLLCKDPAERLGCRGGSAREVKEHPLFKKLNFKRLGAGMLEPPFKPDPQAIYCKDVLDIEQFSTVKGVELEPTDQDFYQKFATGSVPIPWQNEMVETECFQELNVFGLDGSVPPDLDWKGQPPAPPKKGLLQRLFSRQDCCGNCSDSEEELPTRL

Compound: Clc1cc2cc(c1)-c1cnn3ccc(nc13)NCCOCCO2 [OD36]
- inhibition at 0.1 µM (RET_S891A): 63%
- inhibition at 0.1 µM (CDK8_cyclinC): 57%
- inhibition at 0.1 µM (NTRK3): 17%
- inhibition at 0.1 µM (GSG2): 50%
- inhibition at 0.1 µM (TLK1): 17%
- inhibition at 0.1 µM (CAMK2B): 32%
- inhibition at 0.1 µM (PRKCG): 16%
- inhibition at 0.1 µM (DAPK3): 16%
- inhibition at 0.1 µM (LRRK2): 53%
- inhibition at 0.1 µM (PIM3): 25%
- inhibition at 0.1 µM (PRKCA): 26%
- inhibition at 0.1 µM (CLK1): 7%
- inhibition at 0.1 µM (MAP2K6): 1%
- inhibition at 0.1 µM (MAP4K4): 38%
- inhibition at 0.1 µM (PAK7): 8%
- inhibition at 0.1 µM (MAP3K9): 13%
- inhibition at 0.1 µM (PRKD2): 9%
- inhibition at 0.1 µM (LIMK2): 6%
- inhibition at 0.1 µM (EIF2AK1): -4%
- inhibition at 0.1 µM (SIK2): 94%
- inhibition at 0.1 µM (RAF1): 2%
- inhibition at 0.1 µM (MAPK15): 17%
- inhibition at 0.1 µM (CDK4_cyclinD3): -30%
- inhibition at 0.1 µM (GRK6): 10%
- inhibition at 0.1 µM (TSSK1B): 9%
- inhibition at 0.1 µM (EPHA8): 11%
- inhibition at 0.1 µM (PRKG1): 3%
- inhibition at 0.1 µM (SRC): 15%
- inhibition at 0.1 µM (RET_V804L): -10%
- inhibition at 0.1 µM (GSK3B): 11%
- inhibition at 0.1 µM (MARK1): 11%
- inhibition at 0.1 µM (FGFR3_G697C): -1%
- inhibition at 0.1 µM (HIPK3): 12%
- inhibition at 0.1 µM (ERBB4): 12%
- inhibition at 0.1 µM (AURKC): 13%
- inhibition at 0.1 µM (EGFR_E746-A750del): 9%
- inhibition at 0.1 µM (FER): 6%
- inhibition at 0.1 µM (STK33): -1%
- inhibition at 0.1 µM (VRK1): -4%
- inhibition at 0.1 µM (MET_Y1235D): -5%
- inhibition at 0.1 µM (EPHA7): 23%
- inhibition at 0.1 µM (FGFR4): 9%
- Selectivity: % of tested kinases inhibited over 50% (panel of 366–468 kinases): 4.3%

Compound: Cc1cc2cc(c1)-c1cnn3ccc(nc13)NCCNC(=O)CCN(C)C2 [OD52]
- inhibition at 0.1 µM (RET_S891A): 84%
- inhibition at 0.1 µM (CDK8_cyclinC): 44%
- inhibition at 0.1 µM (NTRK3): 24%
- inhibition at 0.1 µM (GSG2): 20%
- inhibition at 0.1 µM (TLK1): 16%
- inhibition at 0.1 µM (CAMK2B): 12%
- inhibition at 0.1 µM (PRKCG): 11%
- inhibition at 0.1 µM (DAPK3): 11%
- inhibition at 0.1 µM (LRRK2): 10%
- inhibition at 0.1 µM (PIM3): 10%
- inhibition at 0.1 µM (PRKCA): 8%
- inhibition at 0.1 µM (CLK1): 6%
- inhibition at 0.1 µM (MAP2K6): 6%
- inhibition at 0.1 µM (MAP4K4): 5%
- inhibition at 0.1 µM (PAK7): 5%
- inhibition at 0.1 µM (MAP3K9): 4%
- inhibition at 0.1 µM (PRKD2): 4%
- inhibition at 0.1 µM (LIMK2): 2%
- inhibition at 0.1 µM (EIF2AK1): 2%
- inhibition at 0.1 µM (SIK2): -1%
- inhibition at 0.1 µM (RAF1): -1%
- inhibition at 0.1 µM (MAPK15): -3%
- inhibition at 0.1 µM (CDK4_cyclinD3): -5%
- inhibition at 0.1 µM (GRK6): -5%
- inhibition at 0.1 µM (TSSK1B): -5%
- inhibition at 0.1 µM (EPHA8): -6%
- inhibition at 0.1 µM (PRKG1): -6%
- inhibition at 0.1 µM (SRC): -6%
- inhibition at 0.1 µM (RET_V804L): -8%
- inhibition at 0.1 µM (GSK3B): -9%
- inhibition at 0.1 µM (MARK1): -9%
- inhibition at 0.1 µM (FGFR3_G697C): -10%
- inhibition at 0.1 µM (HIPK3): -10%
- inhibition at 0.1 µM (ERBB4): -10%
- inhibition at 0.1 µM (AURKC): -11%
- inhibition at 0.1 µM (EGFR_E746-A750del): -11%
- inhibition at 0.1 µM (FER): -12%
- inhibition at 0.1 µM (STK33): -13%
- inhibition at 0.1 µM (VRK1): -15%
- inhibition at 0.1 µM (MET_Y1235D): -15%
- inhibition at 0.1 µM (EPHA7): -18%
- inhibition at 0.1 µM (FGFR4): -28%
- Selectivity: % of tested kinases inhibited over 50% (panel of 366–468 kinases): 0.9%
